Test system: C57BL/6 male mice
Test: In vivo delivery study of lipid nucleic acid mixture (oral gavage, RT-qPCR of PGY-sRNA-26 in tissues)
Set-up: species or system mouse
Details: for overall delivery efficacy: delivering nucleic acids into each tissue and blood tested: 100 μg lipid:10 nmol PGY-sRNA-26, all tissues and blood tested; for oral delivery of single-stranded sRNA nucleic acids into mouse heart tissue: vs free uptake group; for oral delivery of single-stranded sRNA nucleic acids into mouse intestinal tissue: intestine
Method: 10 nmol of small RNA (as shown in Table 2) was dissolved in 400 μl of DEPC-treated water in a glass tube, 10 μl of the corresponding lipid stock solution was added such that the lipid mass in the system was 100 μg. The mixture was mixed thoroughly, heated in a 90° C. water bath for 15 minutes, and then cooled naturally to obtain the lipid nucleic acid mixture of lipid and small RNA.
C57BL/6 male mice, approximately 6 weeks old, weighing […], were obtained from Beijing Vital River Laboratory Animal Technology Co., Ltd. The mice were housed in the SPF-grade animal facility at the Animal Center of the Institute of Basic Medical Sciences, Chinese Academy of Medical Sciences. The mice were fasted for 12 hours before gavage administration.
The lipid nucleic acid mixture was prepared following the method described in Example 2. The resultant lipid nucleic acid mixture was orally administered to each mouse at a dose of 100 μg lipid:10 nmol single-stranded 3-methylated small RNA PGY-sRNA-26.
• 1) Blank group (n=4): mice were administered with 500 μl saline by gavage, this group served as a blank control; • 2) Free uptake group (n=4): mice were directly administered with small RNA PGY-sRNA-26 solution (10 nmol/mouse, 500 l) by gavage, this group served as a negative control; • 3) Lipid-treated group (n=4): mice were administered with 500 μl lipid nucleic acid mixture prepared in step 2 by gavage.
After 12 hours of gavage administration, 500 μl blood from the eyeball of each mouse was sampled, added to 1.5 ml Trizol Reagent LS (purchased from Invitrogen), thoroughly mixed for lysis. 3 ml of Trizol Reagent LSwas added to tissue samples and homogenized for complete lysis, wherein the sampled tissues include heart, liver, spleen, lung, kidney, stomach, intestine, brain, blood, femur, pancreas. RNAwas extracted from 1 ml of the blood or the tissue lysate following the steps below: • Centrifuge at 4° C., 12,000 rpm for 5 min, discard the precipitate, transfer Trizol to a new centrifuge tube; • Add chloroform at 200 μL chloroform/mL Trizol, shake well, stand at room temperature for 5 min; • Centrifuge at 4° C., 12,000 rpm for 15 min; • Take the upper aqueous phase to another centrifuge tube, add isopropanol at 0.4 mL isopropanol/mL Trizol, mix well, and stand at low temperature for 10-20 min; • Centrifuge at 4° C., 12,000 rpm for 15 min, discard the supernatant, RNA precipitated at the bottom of the tube; • Add 1 mL of 75% ethanol, gently shake the centrifuge tube, suspend the precipitate; • Centrifuge at 4° C., 12,000 rpm for 15 min, discard the supernatant, add 1 mL of 75% ethanol, gently shake the centrifuge tube, suspend the precipitate; • Centrifuge at 4° C., 12,000 rpm for 15 min, discard the supernatant, air-dry at room temperature, dissolve RNA samples in 50 μL RNase-free H2O, measure OD value to quantify RNA concentration. 3.3 Reverse Transcription of sRNA to cDNA:
sRNA was reverse transcribed to cDNA using the High-Capacity cDNA Reverse Transcription Kit (Applied Biosystems, cat. no. 4368813) by stem-loop method (see, e.g., “Real-time quantification of microRNAs by stem-loop RT-PCR, Nucleic Acids Res. 2005 Nov. 27; 33(20):e179”, incorporated herein by reference). The reverse transcription system is as follows: Template RNA (200 ng/μL) 10 μL, 10×RT Buffer 2.0 μL, 25×dNTP Mix (100 mM) 0.8 μL, U6 RT stem-loop primer (10 μM) 2.0 μL, PGY-sRNA-26 RT stem-loop primer (10 μM) 2.0 μL, MultiScribe™ Reverse Transcriptase (50 U/μL) 1.0 μL, RNAse Inhibitor (40 U/μL) 1.0 μL, nuclease-free H2O 1.2 μL. After transient centrifugation, the reverse transcription system was placed in a PCR machine with the following reaction conditions: (1) 25° C., 10 min; (2) 37° C., 120 min; (3) 85° C., 5 min; (4) 4° C., stop reaction. After the reaction, add 20 μL RNAse-free ddH2O, adjust the final volume to 40 μL. […]

[1] = 100 μg lipid:10 nmol PGY-sRNA-26, sampled after 12 hours

| Structure (SMILES) | overall delivery efficacy: delivering nucleic acids into each tissue and blood tested | oral delivery of single-stranded sRNA nucleic acids into mouse blood [1] | oral delivery of single-stranded sRNA nucleic acids into mouse brain tissue [1] | oral delivery of single-stranded sRNA nucleic acids into mouse femur [1] | oral delivery of single-stranded sRNA nucleic acids into mouse heart tissue [1] | oral delivery of single-stranded sRNA nucleic acids into mouse intestinal tissue [1] | oral delivery of single-stranded sRNA nucleic acids into mouse kidney tissue [1] | oral delivery of single-stranded sRNA nucleic acids into mouse liver tissue [1] | oral delivery of single-stranded sRNA nucleic acids into mouse lung tissue [1] | oral delivery of single-stranded sRNA nucleic acids into mouse spleen tissue [1] | oral delivery of single-stranded sRNA nucleic acids into mouse stomach tissue [1] | oral delivery of single-stranded sRNA nucleic acids into mouse pancreatic tissue (100 μg lipid:10 nmol PGY-sRNA-26, sampled after 12 hours, pancreas) |
| --- | --- | --- | --- | --- | --- | --- | --- | --- | --- | --- | --- | --- |
| COc1cc(CNC(=O)CCCC/C=C/C(C)C)ccc1O [Lipid 537] | best delivery efficacy | can effectively orally deliver | can effectively orally deliver | can effectively orally deliver | can effectively orally deliver | can effectively orally deliver | can effectively orally deliver | can effectively orally deliver | can effectively orally deliver | can effectively orally deliver | can effectively orally deliver | – |
| CCCCCCCCCCCCCCCCCCO [Lipid 636, octadecan-1-ol] | best delivery efficacy | can effectively orally deliver | can effectively orally deliver | can effectively orally deliver | can effectively orally deliver | can effectively orally deliver | can effectively orally deliver | can effectively orally deliver | can effectively orally deliver | can effectively orally deliver | can effectively orally deliver | – |
| CC(C)(CC(=O)O)CC(=O)O [Lipid 598, 3,3-dimethylpentanedioic acid] | best delivery efficacy | can effectively orally deliver | can effectively orally deliver | can effectively orally deliver | can effectively orally deliver | can effectively orally deliver | can effectively orally deliver | can effectively orally deliver | can effectively orally deliver | can effectively orally deliver | can effectively orally deliver | – |
| CCCCCCCCCCCCCCCC(N)=O [Lipid 599, hexadecanamide] | best delivery efficacy | can effectively orally deliver | can effectively orally deliver | can effectively orally deliver | can effectively orally deliver | can effectively orally deliver | can effectively orally deliver | can effectively orally deliver | can effectively orally deliver | can effectively orally deliver | can effectively orally deliver | – |
| CCCCCC(=O)/C=C/C=O [Lipid 525, (E)-4-oxonon-2-enal] | – | – | – | – | – | can effectively orally deliver | can effectively orally deliver | – | can effectively orally deliver | can effectively orally deliver | can effectively orally deliver | – |
| CC=CC(C)=O [Lipid 621] | – | can effectively orally deliver | can effectively orally deliver | can effectively orally deliver | can effectively orally deliver | can effectively orally deliver | – | can effectively orally deliver | can effectively orally deliver | – | can effectively orally deliver | – |
| CC(CC(=O)O)C(=O)O (stereo not shown) [Lipid 608, 2-methylbutanedioic acid] | – | – | – | can effectively orally deliver | can effectively orally deliver | – | – | – | can effectively orally deliver | can effectively orally deliver | can effectively orally deliver | – |
| CCCCC/C=C\C/C=C\C/C=C\C/C=C\CCCC(=O)NCCCO [Lipid 808, (5Z,8Z,11Z,14Z)-N-(3-hydroxypropyl)icosa-5,8,11,14-tetraenamide] | – | can effectively orally deliver | can effectively orally deliver | can effectively orally deliver | can effectively orally deliver | can effectively orally deliver | can effectively orally deliver | can effectively orally deliver | can effectively orally deliver | can effectively orally deliver | can effectively orally deliver | can effectively orally deliver |
